Results taken from the NIST ThermoML archive (doi:10.1016/j.tca.2014.06.031).

What was measured:
[1] = refractive index (Na D-line) (dimensionless); conditions: 101.33 kPa, Liquid, Standard Abbe refractometry
[2] = Liquid; for speed of sound: Sing-around technique in a fixed-path interferometer; for mass density: Vibrating tube method
[3] = refractive index (Na D-line) (dimensionless); xn = mol fraction of the nth substance listed; conditions: 101 kPa, Liquid, Standard Abbe refractometry
[4] = xn = mol fraction of the nth substance listed; conditions: 101 kPa, Liquid; for speed of sound: Frequency=3 MHz, Sing-around technique in a fixed-path interferometer; for mass density: Vibrating tube method

CCCC(=O)O [butanoic acid]
[1]
Conditions	refractive index
293.15 K	1.39826
298.15 K	1.3963
303.15 K	1.39421
308.15 K	1.39217
313.15 K	1.3901

[2], 101.33 kPa
Conditions	mass density [kg/m3]	speed of sound [m/s]
293.15 K	957.78	1195.5
298.15 K	952.81	1176.9
303.15 K	947.94	1158.2
308.15 K	942.92	1139.7
313.15 K	938.05	1121.3

CCCC(=O)O [butanoic acid] + CCCCC(=O)O
x1 = 1
Conditions	mass density, [4] [kg/m3]	refractive index, [3]	speed of sound, [4] [m/s]
293.15 K	957.78	1.39826	1195.5
298.15 K	952.81	1.3963	1176.9
303.15 K	947.94	1.39421	1158.2
308.15 K	942.92	1.39217	1139.7
313.15 K	938.05	1.3901	1121.3

CCOC(=O)OCC [diethyl carbonate]
Conditions	refractive index
[1], 298.15 K	1.38249

Conditions	speed of sound [m/s]
[2], 298.15 K, 101 kPa, Frequency=3 MHz	1176.6

Conditions	mass density [kg/m3]
[2], 298.15 K, 101 kPa	969.32

CCOC(=O)OCC [diethyl carbonate] + CCO
298.15 K
Conditions	mass density, [4] [kg/m3]	refractive index, [3]	speed of sound, [4] [m/s]
x1 = 0.0415	800.3	1.36136	1145.2
x1 = 0.0943	817.71	1.36347	1147.3
x1 = 0.1932	845.85	1.36698	1150.9
x1 = 0.2929	869.58	1.36981	1154
x1 = 0.3938	889.96	1.37241	1156.9
x1 = 0.4965	907.82	1.3746	1159.8
x1 = 0.597	922.99	1.37647	1162.8
x1 = 0.6924	935.73	1.37805	1166
x1 = 0.7911	947.58	1.37957	1169.7
x1 = 0.899	959.27	1.38109	1173.7
x1 = 0.9413	963.58	1.38167	1175
x1 = 1	969.32	1.38249	1176.6

CCO [ethanol]
Conditions	refractive index
[1], 298.15 K	1.35945

Conditions	speed of sound [m/s]
[2], 298.15 K, 101 kPa, Frequency=3 MHz	1142.8

Conditions	mass density [kg/m3]
[2], 298.15 K, 101 kPa	785.24

CCO [ethanol] + CCOC(=O)OCC
298.15 K, x2 = 0
Conditions	mass density [kg/m3]	refractive index	speed of sound [m/s]
[3]	–	1.35945	–
[4]	785.24	–	1142.8

CCCCCCC(=O)O [heptanoic acid]
[1]
Conditions	refractive index
293.15 K	1.42336
298.15 K	1.42138
303.15 K	1.41935
308.15 K	1.41733
313.15 K	1.4153

[2], 101.33 kPa
Conditions	mass density [kg/m3]	speed of sound [m/s]
293.15 K	917.65	1295.4
298.15 K	913.47	1277.7
303.15 K	909.29	1259.9
308.15 K	905.11	1242.2
313.15 K	900.94	1224.7

CCCCC(=O)O [pentanoic acid]
[1]
Conditions	refractive index
293.15 K	1.4084
298.15 K	1.40641
303.15 K	1.40438
308.15 K	1.40234
313.15 K	1.4003

[2], 101.33 kPa
Conditions	mass density [kg/m3]	speed of sound [m/s]
293.15 K	939.41	1234
298.15 K	934.85	1216
303.15 K	930.29	1197.9
308.15 K	925.73	1179.9
313.15 K	921.16	1162.1

CCCCC(=O)O [pentanoic acid] + CCCCCCC(=O)O
x2 = 0
Conditions	mass density, [4] [kg/m3]	refractive index, [3]	speed of sound, [4] [m/s]
293.15 K	939.41	1.4084	1234
298.15 K	934.85	1.40641	1216
303.15 K	930.29	1.40438	1197.9
308.15 K	925.73	1.40234	1179.9
313.15 K	921.16	1.4003	1162.1
